Test results reported in ChEMBL document CHEMBL1201862, “PubChem BioAssay data set” (2004).
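Where inhibition never reached the appropriate level, the endpoint shown equals the highest concentration tested. Otherwise, values were interpolated linearly from a five-concentration, 48-hour dose response in 96-well plates. Here, GI50 denotes the concentration required for 50% inhibition of growth.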 Calls of active or inactive are those of the source. No stated cut-off is given here; in the data, active = GI50 up to about 1.1 µM and inactive = higher.

Legend:
Test in all cases: inhibition of tumour cell growth, NCI panel, 48 h
HCC 2998 = tested on: HCC 2998
HCT-116 = tested on: HCT-116
HCT-15 = tested on: HCT-15
IGROV-1 = tested on: IGROV-1
KM12 = tested on: KM12
MOLT-4 = tested on: MOLT-4
NCI-H460 = tested on: NCI-H460
NCI/ADR-RES = tested on: NCI/ADR-RES
OVCAR-3 = tested on: OVCAR-3
OVCAR-4 = tested on: OVCAR-4
OVCAR-5 = tested on: OVCAR-5
RPMI-8226 = tested on: RPMI-8226
RXF 393 = tested on: RXF 393
SF-295 = tested on: SF-295
SNB-75 = tested on: SNB-75
SW-620 = tested on: SW-620
Hs-578T = tested on: Hs-578T
M14 = tested on: M14
T47D = tested on: T47D
TK-10 = tested on: TK-10

SMILES | GI50 (HCC 2998) | GI50 (HCT-116) | GI50 (HCT-15) | GI50 (IGROV-1) | GI50 (KM12) | GI50 (MOLT-4) | GI50 (NCI-H460) | GI50 (NCI/ADR-RES) | GI50 (OVCAR-3) | GI50 (OVCAR-4) | GI50 (OVCAR-5) | GI50 (RPMI-8226) | GI50 (RXF 393) | GI50 (SF-295) | GI50 (SNB-75) | GI50 (SW-620) | GI50 (Hs-578T) | GI50 (M14) | GI50 (T47D) | GI50 (TK-10)
CN(C)CCOc1cc2c(c3ccccc13)-c1ccccc1C2=O | 1.75 µM (inactive) | 1.03 µM (active) | 1.18 µM | 1.88 µM (inactive) | 1.46 µM (inactive) | 0.339 µM (active) | 0.675 µM (active) | 0.818 µM (active) | 1.9 µM (inactive) | 1.12 µM (active) | 2.47 µM (inactive) | 1.56 µM (inactive) | 2.86 µM (inactive) | 1.71 µM (inactive) | 1.8 µM (inactive) | 1.39 µM (inactive) |  |  |  | 
COc1ccc2c(c1)c1c(n2CCN(C)C)-c2ccccc2CC1 | 18.2 µM (inactive) | 15.2 µM (inactive) | 13.7 µM | 11.9 µM (inactive) | 14.4 µM (inactive) | 13.2 µM (inactive) | 16.7 µM (inactive) | 16.8 µM (inactive) | 16.6 µM (inactive) | 16.9 µM (inactive) | 18.2 µM (inactive) | 13.7 µM (inactive) |  | 16.9 µM (inactive) | 13.7 µM (inactive) | 16.8 µM (inactive) | 17.6 µM (inactive) | 15.6 µM (inactive) | 14.5 µM (inactive) | 15.9 µM (inactive)
N=C(N)SCCC(=O)CCSC(=N)N | > 100 µM (inactive) | > 100 µM (inactive) | > 100 µM |  | 70.3 µM (inactive) | 99.5 µM (inactive) | > 100 µM (inactive) | 91.2 µM (inactive) | > 100 µM (inactive) | > 100 µM (inactive) |  |  | > 100 µM (inactive) | > 100 µM (inactive) | > 100 µM (inactive) | > 100 µM (inactive) | > 100 µM (inactive) | > 100 µM (inactive) | > 100 µM (inactive) | > 100 µM (inactive)
O=C(O)C(O)Cc1ccccn1 (configuration not stated) | > 100 µM (inactive) |  | > 100 µM | > 100 µM (inactive) | > 100 µM (inactive) |  | > 100 µM (inactive) | > 100 µM (inactive) | > 100 µM (inactive) | > 100 µM (inactive) | > 100 µM (inactive) | > 100 µM (inactive) | > 100 µM (inactive) | > 100 µM (inactive) |  | > 100 µM (inactive) | > 100 µM (inactive) | > 100 µM (inactive) | > 100 µM (inactive) | > 100 µM (inactive)
O=C(O)C(F)(F)C(F)(F)C(F)(F)C(F)(F)C(F)(F)C(F)(F)C(F)(F)C(F)(F)F | 86.9 µM (inactive) | 41 µM (inactive) | 27.4 µM | > 100 µM (inactive) | 53.1 µM (inactive) | > 100 µM (inactive) | 81.5 µM (inactive) | 44.9 µM (inactive) | 43.8 µM (inactive) | 73.3 µM (inactive) | 33.3 µM (inactive) |  | > 100 µM (inactive) | 31 µM (inactive) | 71.8 µM (inactive) | 52.5 µM (inactive) | 29.9 µM (inactive) | 28.1 µM (inactive) | 57.3 µM (inactive) | > 100 µM (inactive)
CC12CCC(=O)[C@@]1(C)CCCC2O (some centres not stated) | > 100 µM (inactive) | > 100 µM (inactive) | > 100 µM | > 100 µM (inactive) | > 100 µM (inactive) | > 100 µM (inactive) | > 100 µM (inactive) | > 100 µM (inactive) |  | > 100 µM (inactive) | > 100 µM (inactive) | > 100 µM (inactive) |  | > 100 µM (inactive) | > 100 µM (inactive) | > 100 µM (inactive) | > 100 µM (inactive) | > 100 µM (inactive) | > 100 µM (inactive) | > 100 µM (inactive)
O=C(O)c1ccc(C(=O)O)c2c(C(=O)O)ccc(C(=O)O)c12 |  | > 100 µM (inactive) | > 100 µM | > 100 µM (inactive) | > 100 µM (inactive) | > 100 µM (inactive) | > 100 µM (inactive) | > 100 µM (inactive) | > 100 µM (inactive) | > 100 µM (inactive) | > 100 µM (inactive) | > 100 µM (inactive) | > 100 µM (inactive) | > 100 µM (inactive) | > 100 µM (inactive) | > 100 µM (inactive) | > 100 µM (inactive) | > 100 µM (inactive) | > 100 µM (inactive) | > 100 µM (inactive)
CC=C/C=C/[C@@H]1O[C@](O)([C@H](CC)C(=O)NC/C=C/C=C(\C)[C@@H](OC)[C@@H](C)[C@@H]2O[C@H](/C=C/C=C/C=C(\C)C(=O)c3c(O)cc[nH]c3=O)[C@H](O)[C@@H]2O)[C@H](O)[C@H](O)C1(C)C | > 100 µM (inactive) |  | > 100 µM | > 100 µM (inactive) | 72.6 µM (inactive) | 73.6 µM (inactive) | 92.7 µM (inactive) | > 100 µM (inactive) | > 100 µM (inactive) | > 100 µM (inactive) | > 100 µM (inactive) | 88.7 µM (inactive) |  | 69.7 µM (inactive) | > 100 µM (inactive) | > 100 µM (inactive) | 43.4 µM (inactive) | > 100 µM (inactive) |  | > 100 µM (inactive)
